Where “and” joins values, the source holds several entries; their conditions need not be identical. Equal entries are not always repeated. Entries after “also recorded” stand apart in the source; their conditions may differ. Where two headings read alike, the source gives them in different places.
Legend:
[1] = tested on: MCF-7 (breast adenocarcinoma); assay: SRB antiproliferative assay, 72 h exposure; type: cell-based, human; settings: MCF-7, SRB; for IC50: read-out: IC50 ± SD MCF-7
Description: (§1) Established in vitro, human cell lines MV4-11 (human biphenotypic B myelomonocytic leukemia), MCF-7 (breast cancer), LoVo (colon cancer), LoVo/DX (colon cancer drug resistant), and MCF-10A (normal breast epithelial) were used. The lines were obtained from the American Type Culture Collection (lines MV4-11, LoVo, LoVo/DX, MCF-10A; Rockville, MD, USA) or from the European Collection of Authenticated Cell Cultures (line MCF-7) and are being maintained at the Hirszfeld Institute of Immunology and Experimental Therapy PAS, Wroclaw, Poland.
(§2) MCF-7 cells were cultured in the Eagle’s medium (HIIET PAS, Poland) supplemented with 10% FBS, 8 µg/mL insulin, 2 mM L-glutamine and 1% MEM-non essential amino acid solution 100X (all from Sigma Aldrich, Steinheim, Germany). MCF-10A cells were cultured in the HAM’S F-12 with L-glutamine medium (Corning) supplemented with 10% Hors Serum (Gibco), 10 µg/mL insulin, 0.5 µg/mL hydrocortisone, 20 ng/mL EGFh and 0.05 mg/mL Cholera Toxin from Vibrio cholerae (all from Sigma Aldrich, Steinheim, Germany). All culture mediums were supplemented with 100 units/mL penicillin (Polfa Tarchomin S.A. Poland), and 100 µg/mL streptomycin (Sigma Aldrich). All cell lines were grown at 37 °C with 5% CO2 humidified atmosphere.
(§3) Test solutions of the compounds tested (50 mM) were prepared by dissolving the substances in DMSO (Sigma Aldrich). Afterwards, the tested compounds were diluted in a culture medium to reach the final concentrations at the range of 1-80 μg/mL (250, 125, 25 and 5 μM).
(§4) Twenty-four hours prior to the addition of the tested compounds, the cells were plated in 96-well plates (Sarstedt, Germany) at a density of 1 × 10^4 or 0.75 × 10^4 (MCF-7) cells per well. The assay was performed after 72 h of exposure to varying concentrations of the tested agents. The in vitro cytotoxic effect of all agents was examined using the MTT (MV4-11) or SRB assay. The results were calculated as IC50 (inhibitory concentration 50%) the concentration of tested agent, which is cytotoxic for 50% of the cancer cells. Each compound in each concentration was tested in triplicate in a single experiment, which was repeated 3–4 times.
(§5) This technique was applied for the cytotoxicity screening against cells growing in adherent culture. The details of this technique were described by Skehan et. al.. The cytotoxicity assay was performed after 72 h exposure of the cultured cells to varying concentrations of the tested agents. The cells attached to the plastic were fixed by gently layering cold 50% TCA (trichloroacetic acid, Sigma Aldrich) on the top of the culture medium in each well. The plates were incubated at 4 °C for 1 h and then washed five times with tap water. The cellular material fixed with TCA was stained with 0.1% sulforhodamine B (SRB, Sigma Aldrich) dissolved in 1% acetic acid (POCh) for 30 min. Unbound dye was removed by rinsing (4×) with 1% acetic acid. The protein-bound dye was extracted with 10 mM unbuffered Tris base (Sigma Aldrich) for determination of optical density (at 540 nm) on Synergy H4 photometer (BioTek Instruments). The background optical density was measured in the wells filled with culture medium, without the cells.

[2] = tested on: MCF-10A (normal non-tumorigenic epithelial cell line derived from mammary gland); assay: SRB cytotoxicity assay, 72 h exposure; type: cell-based, human; settings: for IC50: read-out: IC50 ± SD MCF-10A; for cytotoxicity against normal MCF-10A cells relative to cancer MCF-7 cells: MCF-10A versus MCF-7
Description: as §1, §2, §3, §4, §5

[3] = tested on: LoVo/DX (human colon adenocarcinoma, resistant to doxorubicin); assay: SRB antiproliferative assay, 72 h exposure; resistance index; type: cell-based; settings: for RI (resistance index): IC50 against LoVo/DX divided by IC50 against LoVo; for IC50 ± SD LoVoDX / IC50: LoVo/DX, SRB, 72 h; for IC50: read-out: IC50 ± SD LoVoDX
Description: as §1
(§6) MV4-11 cells were cultured in the RPMI 1640 medium (HIIET PAS, Poland) supplemented with 1.0 mM sodium pyruvate, 2 mM L-glutamine and 10% FBS (all from Sigma Aldrich, Steinheim, Germany), LoVo cells were cultured in the F-12K medium (Life Technologies, Carlsbad, CA, United States) supplemented with 10% FBS (GE Healthcare, Chicago, IL, USA), and LoVo/DX cells were cultured in the mixture of RPMI 1640+OptiMEM (1:1) medium (HIIET PAS) supplemented with 5% FBS (GE Healthcare, Chicago, IL, USA), 2 mM L-glutamine, 1.0 mM sodium pyruvate (all from Sigma Aldrich, Steinheim, Germany) and 0.1 µg/mL doxorubicin chloride (Accord).
as §3, §4
The resistance indexes (RI) were calculated by dividing the IC50 values of the compounds tested against the cells of drug resistant cell LoVo/DX line by respective values obtained against the cells of drug sensitive LoVo line (Table 2). According to Harker et al., three categories of the cells could be distinguished: (a) the cells are drug-sensitive if the ratio approaches 0–2; (b) the cells are moderately drug-resistant if the ratio ranges from 2 to 10; (c) the cells are markedly drug-resistant if the ratio is higher than 10.
as §5

[4] = tested on: MV4-11 (human biphenotypic B cell myelomonocytic leukemia); assay: MTT antiproliferative assay, 72 h exposure; type: cell-based; settings: for IC50 / IC50 ± SD: MV4-11, MTT, 72 h, n.a. = no activity in a concentration of 1–80 μg/mL; for antiproliferative activity (in words): MV4-11 leukemia cells; for inhibition at 80 µg/mL: MV4-11, compound concentration 80 μg/mL, read-out: inhibition of cell proliferation
Description: as §1, §6, §3, §4
This technique was applied for cells growing in suspension culture. An assay was performed after 72 h exposure to varying concentrations of the tested agents. For the last 4 h of incubation, 20 µL of MTT solution was added to each well (MTT: 3-(4,5-dimethylthiazol-2-yl)-2,5-diphenyl tetrazolium bromide; stock solution: 5 mg/mL, Sigma Aldrich). When the incubation time was completed, 80 µL of the lysing mixture was added to each well (lysing mixture: 225 mL dimethylformamide, POCh, Gliwice, Poland, 67.5 g sodium dodecyl sulfate, Sigma Aldrich, and 275 mL of distilled water). After 24 h, when formazan crystals had been dissolved, the optical densities of the samples were read on Synergy H4 photometer (BioTek Instruments, USA) at 570 nm wavelength. The background optical density was measured in the wells filled with culture medium, without the cells.

[5] = tested on: LoVo (human colon adenocarcinoma, sensitive); assay: SRB antiproliferative assay, 72 h exposure; type: cell-based; settings: for IC50: read-out: IC50 ± SD LoVo
Description: as §1, §6, §3, §4, §5

[6] = MCF-10A normal cells, SRB, 72 h
[7] = Homo sapiens, MCF-10A normal cells, SRB, 72 h

SMILES	RI (resistance index) [3]	antiproliferative activity (in words) [4]	IC50 ([4]; Homo sapiens, MV4-11, 72 h)	IC50 ([1]; Homo sapiens, MCF7, 72 h)	IC50 [2, 7]	IC50 ([3]; Homo sapiens)	melting point	IC50 ([5]; Homo sapiens)	also measured
N.N.[Cl][Pt][Cl] [Cisplatin, reference compound]	0.49	–	–	–	–	–	–	–	IC50 ± SD MCF-7 [1]: 1.56 ± 0.3 µg/mL; IC50 [1]: 5.2 ± 1 µM; IC50 ± SD MCF-10A [2, 6]: 2.9 ± 0.4 µg/mL; IC50 [2, 6]: 9.7 ± 1.4 µM; IC50 ± SD LoVoDX [3]: 0.84 ± 0.17 µg/mL; IC50 [3]: 2.8 ± 0.6 µM; IC50 [4]: 1.28 ± 0.45 µM; IC50 ± SD [4]: 0.38 ± 0.14 µg/mL; IC50 ± SD LoVo [5]: 1.7 ± 0.8 µg/mL; IC50 [5]: 5.6 ± 2.6 µM
Cc1nsc(Cl)c1C(=O)O [Compound 1, 5-Chloro-3-methylisothiazole-4-carboxylic acid]	–	no antiproliferative activity; also recorded: devoid of any anticancer activity	–	–	–	–	–	–	–
Cc1nsc(Cl)c1C(=O)NN [Compound 2, 5-Chloro-3-Methylisothiazole-4-Carbohydrazide]	–	very poor activity; also recorded: devoid of any anticancer activity	> 80 µg/mL	–	–	–	–	–	inhibition at 80 µg/mL ([4]; Homo sapiens): 45%
Cc1nsc(Cl)c1C(=O)N/N=C/C=C/c1ccccc1 [Compound 3, 5-Chloro-N’-[(1E,2E)-3-phenylprop-2-en-1-ylidene]-3-methylisothiazole-4-carbohydrazide]	1.37	–	4.4 µg/mL and 14 µM	39.3 ± 6.3 µM	20.9 µg/mL and 68.6 µM	34.2 ± 2.3 µM	180 to 181 °C	25 ± 5.5 µM	IC50 ± SD MCF-7 [1]: 12 ± 1.9 µg/mL; activity (IC50 value) towards MCF-10A normal cell line relative to cancer cells ([2]; MCF-10A versus cancer cells): almost two times lower activity; IC50 ± SD LoVoDX [3]: 10.4 ± 0.7 µg/mL; IC50 ± SD [4]: 4.3 ± 1.9 µg/mL; IC50 ± SD LoVo [5]: 7.64 ± 1.7 µg/mL
Cc1nsc(Cl)c1C(=O)N/N=C/c1cccc(Cl)c1 [Compound 4, 5-Chloro-N’-[(E)-(3-chlorophenyl)methylidene]-3-methylisothiazole-4-carbohydrazide]	0.81	–	15.2 µg/mL and 48.4 µM	48.6 ± 5.7 µM	24.6 µg/mL and 78.5 µM	47.9 ± 3.7 µM	174 to 175 °C	59.4 ± 3.4 µM	IC50 ± SD MCF-7 [1]: 15.2 ± 1.8 µg/mL; IC50 ± SD LoVoDX [3]: 15 ± 1.1 µg/mL; IC50 ± SD LoVo [5]: 18.6 ± 1.1 µg/mL
Cc1nsc(Cl)c1C(=O)N/N=C/c1cccc([N+](=O)[O-])c1 [Compound 5, 5-Chloro-N’-[(E)-(3-nitrophenyl)methylidene]-3-methylisothiazole-4-carbohydrazide]	1.29	–	18.7 µg/mL and 57.7 µM	20.1 µg/mL and 65.1 µM	60.8 µg/mL and 197 µM	29.2 µg/mL and 94.6 µM	199 to 200 °C	22.7 µg/mL and 73.4 µM	cytotoxicity against normal MCF-10A cells relative to cancer MCF-7 cells [2]: about three times less cytotoxic
CCc1ccc(/C=N/NC(=O)c2c(C)nsc2Cl)cc1 [Compound 6, 5-Chloro-N’-[(E)-(4-ethylphenyl)methylidene]-3-methylisothiazole-4-carbohydrazide]	0.91	–	21.3 µg/mL and 69.4 µM	13.9 µg/mL and 42.9 µM	40.6 µg/mL and 125 µM	28.8 µg/mL and 88.8 µM	152 to 154 °C	31.7 µg/mL and 97.7 µM	–
COc1cccc(/C=N/NC(=O)c2c(C)nsc2Cl)c1 [Compound 7, 5-Chloro-N’-[(E)-(3-methoxyphenyl)methylidene]-3-methylisothiazole-4-carbohydrazide]	0.72	–	22.4 µg/mL and 72.3 µM	17.8 µg/mL and 58 µM	56 µg/mL and 182 µM	20 µg/mL and 65 µM	139 to 140 °C	27.8 µg/mL and 90.5 µM	antiproliferative activity relative to phenyl derivative 8 ([4]; fold higher than compound 8): 1.5–2 times
Cc1nsc(Cl)c1C(=O)N/N=C/c1ccccc1 [Compound 8, 5-Chloro-N’-[(E)-phenylmethylidene]-3-methylisothiazole-4-carbohydrazide]	–	–	36.6 µg/mL and 131 µM	–	–	–	164 to 165 °C	–	cytotoxicity against normal MCF-10A cells relative to cancer MCF-7 cells [2]: about three times less cytotoxic
Cc1ccc(/C=N/NC(=O)c2c(C)nsc2Cl)c(C)c1 [Compound 9, 5-Chloro-N’-[(E)-(2,4-dimethylphenyl)methylidene]-3-methylisothiazole-4-carbohydrazide]	–	very poor activity	> 80 µg/mL	–	–	–	232 to 234 °C	–	cytotoxicity against normal MCF-10A cells relative to cancer MCF-7 cells [2]: about three times less cytotoxic; inhibition at 80 µg/mL ([4]; Homo sapiens): 42.5%
Cc1ccccc1/C=N/NC(=O)c1c(C)nsc1Cl [Compound 10, 5-Chloro-N’-[(E)-(2-methylphenyl)methylidene]-3-methylisothiazole-4-carbohydrazide]	–	very poor activity	> 80 µg/mL	–	–	–	226 to 228 °C	–	inhibition at 80 µg/mL ([4]; Homo sapiens): 47%
Cc1nsc(Cl)c1C(=O)N/N=C/c1ccccc1Cl [Compound 11, 5-Chloro-N’-[(E)-(2-chlorophenyl)methylidene]-3-methylisothiazole-4-carbohydrazide]	–	no antiproliferative activity	–	–	–	–	232 to 233 °C	–	–
